# Results taken from patent US20160130278A1 (TAISHO PHARMACEUTICAL CO., LTD, priority 2013, published 2016).
# Biological target: T1, human type 1 glycine transporter (GlyT1) (Homo sapiens, UniProt P48067)
# T1 construct: T98G cells (glioma cells) expressing human type 1 glycine transporter (GlyT1) were used
# T1 sequence (P48067 1-706): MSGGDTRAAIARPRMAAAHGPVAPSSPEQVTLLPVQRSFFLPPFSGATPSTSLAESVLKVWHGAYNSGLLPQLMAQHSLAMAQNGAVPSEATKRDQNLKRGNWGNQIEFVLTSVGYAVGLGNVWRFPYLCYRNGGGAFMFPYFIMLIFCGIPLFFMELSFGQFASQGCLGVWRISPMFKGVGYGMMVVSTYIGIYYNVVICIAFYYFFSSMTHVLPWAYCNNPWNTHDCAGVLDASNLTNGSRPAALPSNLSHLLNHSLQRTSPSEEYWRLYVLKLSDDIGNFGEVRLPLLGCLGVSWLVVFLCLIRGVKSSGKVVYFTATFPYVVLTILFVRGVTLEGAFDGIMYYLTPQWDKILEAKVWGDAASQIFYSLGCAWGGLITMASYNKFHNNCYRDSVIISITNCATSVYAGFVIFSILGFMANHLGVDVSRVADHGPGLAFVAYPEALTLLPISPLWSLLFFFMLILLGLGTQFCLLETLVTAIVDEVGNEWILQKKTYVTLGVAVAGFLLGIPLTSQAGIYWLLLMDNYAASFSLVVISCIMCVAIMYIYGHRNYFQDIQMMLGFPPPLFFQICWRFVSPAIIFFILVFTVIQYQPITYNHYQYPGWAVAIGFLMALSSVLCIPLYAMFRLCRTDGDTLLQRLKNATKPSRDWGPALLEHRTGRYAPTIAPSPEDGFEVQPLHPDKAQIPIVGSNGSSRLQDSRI
# Assay: Glycine uptake inhibition experiment ([3H]glycine uptake)
# Format: cell-based
# Conditions: GlyT1
# Procedure, shortened: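 T98G glioma cells expressing human GlyT1 were pretreated 10 min with compound in HEPES buffer pH 7.4 (0.2% BSA), then incubated with compound plus 250 nM final [3H]glycine for 15 min at room temperature. Intracellular radioactivity was counted after NaOH lysis; 10 μM ALX5407 defined non-specific uptake. IC50 came from 10^−9–10^−5 M curves.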
row,IC50 [nM],SMILES
1,830,"CCn1cc(-c2cccc(C(NC(=O)c3cc(Cl)ccc3Cl)C3(O)CCC(F)(F)CC3)c2)cn1 (single isomer, unassigned) [Compound 193, 2,5-dichloro-N-{(4,4-difluroo-1-hydroxycyclohexyl)[3-(1-ethyl-1H-pyrazol-4-yl)phenyl]methyl}benzamide]"
2,760,"CCn1cc(-c2cccc(C(NC(=O)c3cc(Cl)ccc3Cl)C3(O)CCC(F)(F)CC3)c2)cn1 (single isomer, unassigned) [Compound 194, 2,5-dichloro-N-{(4,4-difluoro-1-hydroxycyclohexyl)[3-(1-ethyl-1H-pyrazol-4-yl)phenyl]methyl}benzamide]"
3,1100,"CCn1cc(-c2cccc(C(NC(=O)c3cccc4ccccc34)C3(O)CCC(F)(F)CC3)c2)cn1 (single isomer, unassigned) [Compound 195, N-{(4,4-difluoro-1-hydroxycyclohexyl)[3-(1-ethyl-1H-pyrazol-4-yl)phenyl]methyl}naphthalene-1-carboxamide]"
4,290,"CCn1cc(-c2cccc(C(NC(=O)c3cccc4ccccc34)C3(O)CCC(F)(F)CC3)c2)cn1 (single isomer, unassigned) [Compound 196, N-{(4,4-difluoro-1-hydroxycyclohexyl)[3-(1-ethyl-1H-pyrazol-4-yl)phenyl]methyl}naphthalene-1-carboxamide]"
5,53,"O=C(NC(c1ccccc1Cl)[C@]1(O)CC[C@@H](F)CC1)c1nccc(C(F)(F)F)c1Cl (single isomer, unassigned) [Compound 197, 3-chloro-N-[(2-chlorophenyl)(cis-4-fluoro-1-hydroxycyclohexyl)methyl]-4-(trifluoromethyl)pyridine-2-carboxamide]"
6,200,"O=C(NC(c1ccccc1Cl)[C@]1(O)CC[C@H](F)CC1)c1nccc(C(F)(F)F)c1Cl (single isomer, unassigned) [Compound 198, 3-chloro-N-[(2-chlorophenyl)(trans-4-fluoro-1-hydroxycyclohexyl)methyl]-4-(trifluoromethyl)pyridine-2-carboxamide]"
7,82,"O=C(NC(c1cccc(Cl)c1F)C1(O)CCC(F)CC1)c1nccc(C(F)(F)F)c1Cl (single isomer, unassigned) [Compound 199, 3-chloro-N-[(3-chloro-2-fluorophenyl)(4-fluoro-1-hydroxycyclohexyl)methyl]-4-(trifluoromethyl)pyridine-2-carboxamide]"
8,64,"O=C(NC(c1cccc(Cl)c1F)C1(O)CCC(F)CC1)c1nccc(C(F)(F)F)c1Cl (single isomer, unassigned) [Compound 200, 3-chloro-N-[(3-chloro-2-fluorophenyl)(4-fluoro-1-hydroxycyclohexyl)methyl}-4-(trifluoromethyl)pyridine-2-carboxamide]"
9,130,"O=C(NC(c1cccc(Cl)c1F)C1(O)CCC(F)CC1)c1ccnc(C(F)(F)F)c1Cl (single isomer, unassigned) [Compound 201, 3-chloro-N-[(3-chloro-2-fluorophenyl)(4-fluoro-1-hydroxycyclohexyl)methyl]-2-(trifluoromethyl)pyridine-4-carboxamide]"
10,100,"O=C(NC(c1cccc(F)c1F)C1(O)CCC(F)CC1)c1nccc(C(F)(F)F)c1Cl (single isomer, unassigned) [Compound 204, 3-chloro-N-[(2,3-difluorophenyl)(4-fluoro-1-hydroxycyclohexyl)methyl]-4-(trifluoromethyl)pyridine-2-carboxamide]"
11,3200,"O=C(NC(c1ccccc1Cl)[C@]1(O)CC[C@@H](F)CC1)c1nccc(C(F)(F)F)c1Cl (single isomer, unassigned) [Compound 210, 3-chloro-N-[(2-chlorophenyl)(cis-4-fluoro-1-hydroxycyclohexyl)methyl]-4-(trifluoromethyl)pyridine-2-carboxamide]"
12,170,"O=C(NC(c1ccccc1Cl)[C@]1(O)CC[C@@H](F)CC1)c1ccnc(C(F)(F)F)c1Cl (single isomer, unassigned) [Compound 211, 3-chloro-N-[(2-chlorophenyl)(cis-4-fluoro-1-hydroxycyclohexyl)methyl]-2-(trifluoromethyl)pyridine-4-carboxamide]"
13,37,"O=C(NC(c1cccc(F)c1Cl)[C@]1(O)CC[C@@H](F)CC1)c1nccc(C(F)(F)F)c1Cl (single isomer, unassigned) [Compound 213, 3-chloro-N-[(2-chloro-3-fluorophenyl)(cis-4-fluoro-1-hydroxycyclohexyl)methyl]-4-(trifluoromethyl)pyridine-2-carboxamide]"
14,450,"O=C(NC(c1cccc(F)c1Cl)[C@]1(O)CC[C@@H](F)CC1)c1nccc(C(F)(F)F)c1Cl (single isomer, unassigned) [Compound 214, 3-chloro-N-[(2-chloro-3-fluorophenyl)(cis-4-fluoro-1-hydroxycyclohexyl)methyl]-4-(trifluoromethyl)pyridine-2-carboxamide]"
15,210,"CCn1cc(-c2cccc(C(NC(=O)c3ccc(F)cc3C(F)(F)F)C3(O)CCC(F)(F)CC3)c2)cn1 (single isomer, unassigned) [Compound 215, N-{(4,4-difluoro-1-hydroxycyclohexyl)[3-(1-ethyl-1H-pyrazol-4-yl)phenyl]methyl}-4-fluoro-2-(trifluoromethyl)benzamide]"
16,5500,"CCn1cc(-c2cccc(C(NC(=O)c3ccc(F)cc3C(F)(F)F)C3(O)CCC(F)(F)CC3)c2)cn1 (single isomer, unassigned) [Compound 216, N-{(4,4-difluoro-1-hydroxycyclohexyl)[3-(1-ethyl-1H-pyrazol-4-yl)phenyl]methyl}-4-fluoro-2-(trifluoromethyl)benzamide]"
17,580,"CCn1cc(-c2cccc(C(NC(=O)c3cc(Cl)ccc3C(F)(F)F)C3(O)CCC(F)(F)CC3)c2)cn1 (single isomer, unassigned) [Compound 217, 5-chloro-N-{(4,4-difluoro-1-hydroxycyclohexyl)[3-(1-ethyl-1H-pyrazol-4-yl)phenyl]methyl}-2-(trifluoromethyl)benzamide]"
18,5900,"CCn1cc(-c2cccc(C(NC(=O)c3cc(Cl)ccc3C(F)(F)F)C3(O)CCC(F)(F)CC3)c2)cn1 (single isomer, unassigned) [Compound 218, 5-chloro-N-[(4,4-difluoro-1-hydroxycyclohexyl)[3-(1-ethyl-1H-pyrazol-4-yl)phenyl]methyl}-2-(trifluoromethyl)benzamide]"
19,920,"O=C(NC(c1cccc(Cl)c1F)C1(O)CCC(F)(F)CC1)c1cc(C(F)(F)F)ncc1Cl (single isomer, unassigned) [Compound 219, 5-chloro-N-[(3-chloro-2-fluorophenyl)(4,4-difluoro-1-hydroxycyclohexyl)methyl]-2-(trifluoromethyl)pyridine-4-carboxamide]"
20,1800,"O=C(NC(c1cc(F)cc(Cl)c1)[C@]1(O)CC[C@@H](F)CC1)c1nccc(C(F)(F)F)c1Cl (single isomer, unassigned) [Compound 220, 3-chloro-N-[(3-chloro-5-fluorophenyl)(cis-4-fluoro-1-hydroxycyclohexyl)methyl]-4-(trifluoromethyl)pyridine-2-carboxamide]"
21,5600,"CCn1cc(-c2cccc(C(NC(=O)c3c(Cl)ccc(C(F)(F)F)c3Cl)C3(O)CCC(F)(F)CC3)c2)cn1 (single isomer, unassigned) [Compound 221, 2,6-dichloro-N-{(4,4-difluoro-1-hydroxycyclohexyl)[3-(1-ethyl-1H-pyrazol-4-yl)phenyl]methyl}-3-(trifluoromethyl)benzamide]"
22,190,"CCn1cc(-c2cccc(C(NC(=O)c3c(Cl)ccc(C(F)(F)F)c3Cl)C3(O)CCC(F)(F)CC3)c2)cn1 (single isomer, unassigned) [Compound 222, 2,6-dichloro-N-{(4,4-difluoro-1-hydroxycyclohexyl)[3-(1-ethyl-1H-pyrazol-4-yl)phenyl]methyl}-3-(trifluoromethyl)benzamide]"
23,56,"O=C(NC(c1cccc(F)c1Cl)[C@]1(O)CC[C@@H](F)CC1)c1ccnc(C(F)(F)F)c1Cl (single isomer, unassigned) [Compound 223, 3-chloro-N-[(2-chloro-3-fluorophenyl)(cis-4-fluoro-1-hydroxycyclohexyl)methyl]-2-(trifluoromethyl)pyridine-4-carboxamide]"
24,270,"Cc1c(Cl)ccnc1C(=O)NC(c1cccc(F)c1Cl)[C@]1(O)CC[C@@H](F)CC1 (single isomer, unassigned) [Compound 224, 4-chloro-N-[(2-chloro-3-fluorophenyl)(cis-4-fluoro-1-hydroxycyclohexyl)methyl]-3-methylpyridine-2-carboxamide]"
